Columns and labels:
human MRPP1/2/3 = biological target: T1, human MRPP1/2/3 (Homo sapiens, UniProt O15091); assay: Human mitochondrial RNase P (MRPP1/2/3) activity assay; format: biochemical; settings: 30 min preincubation; 50 nM MRPP3, 500 nM MRPP1/2, 500 nM pre-tRNA, 37 °C; apparent IC50 for juglone
T1 construct: N-terminal truncation (residues 46–583, Δ45MRPP3); His6 (N, cleaved yes); made in house; host or cells: Rosetta (DE3) / Rosetta2 (DE3) E. coli
T1 sequence (O15091 46-583): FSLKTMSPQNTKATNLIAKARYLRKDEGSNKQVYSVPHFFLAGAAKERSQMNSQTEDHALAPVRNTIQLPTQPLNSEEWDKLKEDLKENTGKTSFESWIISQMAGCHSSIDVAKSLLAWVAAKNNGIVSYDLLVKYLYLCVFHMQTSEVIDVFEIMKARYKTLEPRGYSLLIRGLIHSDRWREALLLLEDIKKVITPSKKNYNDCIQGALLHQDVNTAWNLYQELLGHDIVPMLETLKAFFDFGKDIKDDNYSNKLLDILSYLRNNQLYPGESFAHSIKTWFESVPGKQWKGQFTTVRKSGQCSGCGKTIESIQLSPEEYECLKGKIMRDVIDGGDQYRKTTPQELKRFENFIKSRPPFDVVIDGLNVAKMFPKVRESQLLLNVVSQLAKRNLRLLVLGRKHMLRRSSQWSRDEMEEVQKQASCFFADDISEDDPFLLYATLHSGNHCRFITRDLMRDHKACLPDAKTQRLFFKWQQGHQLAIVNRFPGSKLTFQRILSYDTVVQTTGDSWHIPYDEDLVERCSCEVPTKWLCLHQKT
Description: Figure 4 Gambogic acid and juglone inhibit A. thaliana PRORP1 (green), human MRPP1/2/3 (red), and B. subtilis RNase P (blue). Compounds gambogic acid (A) and juglone (B) were incubated with enzyme at double the reaction concentration for 30 min prior to the addition of an equal volume of substrate to initiate the reaction. PRORP1 reactions (shown in green) were performed with 0.3 nM PRORP1 and 800 nM pre-tRNA containing 40 nM Fl-pre-tRNA at 25 °C in 30 mM MOPS pH 7.8, 5 mM MgCl2, 100 mM NaCl, 1 mM TCEP, 500 nM (12 μg/ml) yeast tRNA, 5 mM spermidine, 6.65 μg/ml BSA, and 0.01% NP-40. MRPP1/2/3 reactions (shown in red) were performed using 50 nM MRPP3, 500 nM MRPP1/2, 500 nM pre-tRNA containing 40 nM Fl-pre-tRNA at 37 °C in 50 mM MOPS (pH 7.8), 1 mM TCEP, 4.5 mM MgCl2, and 100 mM NaCl. […]
The inhibition of human MRPP1/2/3 by gambogic acid and juglone was evaluated via dose–response using a quenched assay. Human MRPP1/2/3 activity was measured as a function of gambogic acid and juglone concentration using 50 nM MRPP3, 500 nM MRPP1/2, 500 nM pre-tRNA containing 40 nM Fl-pre-tRNA in 50 mM MOPS (pH 7.8), 4.5 mM MgCl2, 100 mM NaCl, and 1 mM TCEP (pH 7.5). […] Samples were separated by 20% Urea PAGE (Ultra Pure SequaGel), fluorescence signal was quantified using ImageJ, and the data were analyzed using Prism. […]

B. subtilis RNase P = biological target: T2, B. subtilis RNase P (Bacillus subtilis, UniProt P25814); assay: B. subtilis RNase P activity assay (FP, real-time); format: biochemical
T2 construct: made in house
T2 sequence (P25814 whole entry): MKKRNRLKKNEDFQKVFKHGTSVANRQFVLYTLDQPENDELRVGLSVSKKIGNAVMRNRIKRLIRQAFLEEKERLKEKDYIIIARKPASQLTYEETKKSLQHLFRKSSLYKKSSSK
Description: Figure 4 Gambogic acid and juglone inhibit A. thaliana PRORP1 (green), human MRPP1/2/3 (red), and B. subtilis RNase P (blue). Compounds gambogic acid (A) and juglone (B) were incubated with enzyme at double the reaction concentration for 30 min prior to the addition of an equal volume of substrate to initiate the reaction. PRORP1 reactions (shown in green) were performed with 0.3 nM PRORP1 and 800 nM pre-tRNA containing 40 nM Fl-pre-tRNA at 25 °C in 30 mM MOPS pH 7.8, 5 mM MgCl2, 100 mM NaCl, 1 mM TCEP, 500 nM (12 μg/ml) yeast tRNA, 5 mM spermidine, 6.65 μg/ml BSA, and 0.01% NP-40. MRPP1/2/3 reactions (shown in red) were performed using 50 nM MRPP3, 500 nM MRPP1/2, 500 nM pre-tRNA containing 40 nM Fl-pre-tRNA at 37 °C in 50 mM MOPS (pH 7.8), 1 mM TCEP, 4.5 mM MgCl2, and 100 mM NaCl. B. subtilis RNase P reactions (shown in blue) were performed using 20 nM RNase P and 500 nM pre-tRNA containing 40 nM Fl-pre-tRNA at 37 °C in 50 mM Tris, pH 7.2, 5 mM MgCl2, 100 mM KCl, 500 nM (12 μg/ml) yeast tRNA, 20 mM dithiothreitol (DTT), 10 mM spermidine, and 0.01% NP-40. Equation 1 was fit to each dataset.
The inhibition of B. subtilis RNase P activity by gambogic acid and juglone was measured using a previously developed FP assay in real-time.^25 Reactions were performed under multiple turnover conditions using 20 nM RNase P and 500 nM Fl-pre-tRNA^Asp in 50 mM Tris (pH 7.2), 5 mM MgCl2, 100 mM KCl, 500 nM (12 μg/ml) yeast tRNA^mix, 20 mM dithiothreitol, 10 mM spermidine, and 0.01% NP-40 at 37 °C.

SMILES: O=C1C=CC(=O)c2c(O)cccc21 [juglone, 5-hydroxy-1,4-naphthalenedione]
- IC50 (human MRPP1/2/3): 1800 ± 40 nM
- IC50 (B. subtilis RNase P): > 500000 nM

SMILES: CC(C)=CCC[C@]1(C)C=Cc2c(O)c3c(c(CC=C(C)C)c2O1)O[C@]12C(=C[C@@H]4C[C@H]1C(C)(C)O[C@@]2(C/C=C(/C)C(=O)O)C4=O)C3=O [gambogic acid]
- IC50 (human MRPP1/2/3): 260 ± 60 nM
- IC50 (B. subtilis RNase P): 50000 ± 2000 nM

— paper PMC9731865, “Gambogic acid and juglone inhibit RNase P through distinct mechanisms” (The Journal of Biological Chemistry, 2022)
